Where “and” joins values, the source holds several entries; their conditions need not be identical. Equal values may be shown once. Read-outs that look alike come from different tables or passages of the source. Blank lines part the entries; values can stand above or below the molecule they belong to.
Legend:
[1] = target: pooled human liver microsomes (HLM); assay: Inhibition of fenofibrate hydrolysis in pooled human liver microsomes (Ki); format: in vitro ADME; conditions: matrix HLM, substrate fenofibrate
Description: (§1) FIGS. 6A-6D. […] The reaction was stopped, supernatant collected and fenofibric acid level was determined by LC-MS/MS. Ki values were calculated, and the type of inhibition was determined by fitting data to enzyme inhibition models: competitive (FIG. 6A), non-competitive (FIG. 6B), uncompetitive (FIG. 6C) and mixed (FIG. 6D) models. The samples were analyzed in duplicates and represented as mean values.
(§2) Incubation mixtures containing 100 mM Tris-Cl buffer (pH 7.4), recombinant hCES1b (0.05 mg/mL) or pooled human liver microsomes (1 mg/mL) and 8 concentrations of kaempferol or a positive control inhibitor (bis(4-nitrophenyl)-phosphate, BNP) were pre-incubated for 2 minutes at 37° C. […] The reactions were stopped by the addition of a stop solution containing an internal standard. Samples were centrifuged to precipitate protein and the supernatant was collected for LC-MS/MS analysis. The fenofibric acid was quantified using standard curves. The Ki values were calculated, and the type of inhibition was determined by fitting data to specific enzyme inhibition models (Table 2).

recombinant hCES1b = target: T1, recombinant hCES1b (Homo sapiens, UniProt P23141); assay: Inhibition of hCES1b-mediated fenofibrate hydrolysis (Ki); format: biochemical; conditions: matrix hCES1b, substrate fenofibrate
T1 sequence (P23141 18-567): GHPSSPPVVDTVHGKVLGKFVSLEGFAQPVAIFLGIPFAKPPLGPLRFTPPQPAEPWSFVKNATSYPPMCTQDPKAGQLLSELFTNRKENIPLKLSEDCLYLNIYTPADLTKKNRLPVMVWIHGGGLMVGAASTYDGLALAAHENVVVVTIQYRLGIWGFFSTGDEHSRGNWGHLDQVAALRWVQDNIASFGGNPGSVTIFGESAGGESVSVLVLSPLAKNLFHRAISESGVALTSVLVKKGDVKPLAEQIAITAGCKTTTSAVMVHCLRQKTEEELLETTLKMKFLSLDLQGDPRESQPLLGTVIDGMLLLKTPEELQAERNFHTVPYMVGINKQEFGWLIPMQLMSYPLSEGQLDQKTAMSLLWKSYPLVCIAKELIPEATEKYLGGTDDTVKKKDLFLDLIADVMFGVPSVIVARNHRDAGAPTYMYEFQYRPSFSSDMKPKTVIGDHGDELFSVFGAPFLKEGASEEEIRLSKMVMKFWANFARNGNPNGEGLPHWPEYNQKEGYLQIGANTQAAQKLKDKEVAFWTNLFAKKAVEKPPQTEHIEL
Description: as §1, with “5A-5D.” for “6A-6D.”, “Reaction” for “The reaction”, “5A),” for “6A),”, “5B),” for “6B),”, “5C)” for “6C)”, “5D)” for “6D)”
as §2

BV2 cells = assay: LPS-induced IL-1β and PGC-1α gene expression in BV2 cells (qRT-PCR); format: cell-based; conditions: for reduction of LPS-induced IL-1β expression: then 0.1 ng/ml LPS 1 hour
Text: FIG. 4. […] Then total RNA was isolated for IL-1β gene qRT-PCR analysis.
FIGS. 7A and 7B. […] Cell lysates were collected, and RNA was isolated for IL-1β (FIG. 7A) and PGC-1α (FIG. 7B) gene expression by RT-PCR.
Total BV2 cell RNA was extracted for IL-1β gene expression via qRT-PCR analysis.
Cell lysates were collected for determination of IL-1β and PGC-1α gene expression via qRT-PCR.

[2] = Hydrolysis of fenofibrate to fenofibric acid by pooled human liver microsomes (Km, Vmax); conditions: pH 7.4
Description: FIGS. 8A and 8B. […] Reaction was stopped, supernatant collected and fenofibric acid level was determined by LC-MS/MS. […] The samples were analyzed in duplicates and represented as mean values.
The reactions were stopped by the addition of a stop solution containing an internal standard.

[3] = tested on: primary astrocytes derived from PGC-1α heterozygous KO (PGC-1α+/−) mice; assay: LPS-induced inflammation in primary astrocytes from PGC-1α heterozygous KO mice (RT-PCR gene expression); format: cell-based, mouse
Description: (§3) Total RNA was isolated and IL-1β (A, D), TNF-α (B, E) and PGC-1α (C, F) gene expression were determined by RT-PCR.
(§4) Primary astrocytes from postnatal heterozygous mice were isolated and cultured and wild type mice were obtained by breeding these heterozygous knockout mice. […] Total RNA was isolated, and gene expression of pro-inflammatory cytokines, IL-1β and TNF-α, was determined by RT-PCR.

[4] = tested on: primary astrocytes derived from PGC-1α WT (PGC-1α+/+) mice; assay: LPS-induced inflammation in primary astrocytes from PGC-1α WT mice (RT-PCR gene expression); format: cell-based, mouse; conditions: fenofibrate 20 μM overnight, then LPS 1 hour
Description: as §3, §4

[5] = substrate: CC(C)OC(=O)C(C)(C)Oc1ccc(C(=O)c2ccc(Cl)cc2)cc1; assay: cells, lysate or membranes named; format: biochemical, human; conditions: other: matrix hCES1b 0.05 mg/mL, product fenofibric acid, pH 7.4, 37° C.
Description: Reaction was stopped, supernatant collected and fenofibric acid level was determined by LC-MS/MS. Standard curve was plotted and the Km and Vmax values were calculated. The samples were analyzed in duplicates and represented as mean values.
Assay procedure: Incubation mixtures containing 100 mM Tris-Cl buffer (pH 7.4), and recombinant hCES1b (0.05 mg/mL) or pooled HLM (1 mg/mL) were warmed to 37° C. […] The reactions were stopped by the addition of a stop solution containing an internal standard. Samples were centrifuged to precipitate the protein while the supernatant was collected for determination of fenofibric acid using liquid chromatography-tandem mass spectrometry (LC-MS/MS) analysis. […] The Km and Vmax values were calculated by fitting data to enzyme kinetics models (Table 1).

[6] = read-out: Ki, Competitive inhibition model
[7] = read-out: Ki, Non-Competitive inhibition model
[8] = read-out: Ki, Uncompetitive inhibition model
[9] = read-out: Ki, Mixed inhibition model

Ki [1, 6]: 110 µM | Ki [1, 7]: 235 µM | Ki [1, 8]: 131 µM | Ki (recombinant hCES1b; [6]): 36.2 µM | Ki (recombinant hCES1b; [9]): 101 µM | Ki (recombinant hCES1b; [7]): 101 µM | Ki (recombinant hCES1b; [8]): 64.7 µM
Molecule: O=c1c(O)c(-c2ccc(O)cc2)oc2cc(O)cc(O)c12 [Kaempferol, 3,5,7-trihydroxy-2-(4-hydroxyphenyl)-4H-1-benzopyran-4-one]
reduction of LPS-induced IL-1β expression (BV2 cells; 10 μM, 18 hours): 60% | reduction of LPS-induced IL-1β expression (BV2 cells; 20 μM, 18 hours): 85% | effect on PGC-1α expression (BV2 cells; kaempferol alone 10, 20 μM): did not enhance PGC-1α expression

Molecule: CC(C)OC(=O)C(C)(C)Oc1ccc(C(=O)c2ccc(Cl)cc2)cc1 [Fenofibrate]
Km at 10 min [2]: 5.4 µM | enhancement of PGC-1α expression ([3]; fenofibrate 10 and 20 μM): 1.5 fold | reduction of LPS-induced IL-1β expression ([3]; fenofibrate overnight (5, 10, 20 μM tested; concentration not stated), then LPS 1 hour): 55% | reduction of LPS-induced IL-1β expression [4]: 60% | reduction of LPS-induced IL-1β expression (BV2 cells; 20 μM, 18 hours): 80% and 70% | increase of PGC-1α expression (BV2 cells; 20 μM, 18 hours, then LPS 1 hour): 2 fold

Molecule: O=[N+]([O-])c1ccc(OP(=O)(O)Oc2ccc([N+](=O)[O-])cc2)cc1 [BNP, bis(4-nitrophenyl)-phosphate]
Ki [1, 6]: 1.67 µM | Ki [1, 9]: 1.66 µM | Ki [1, 7]: 5.17 µM | Ki [1, 8]: 3.02 µM | Ki (recombinant hCES1b; [6]): 0.044 µM | Ki (recombinant hCES1b; [9]): 0.044 µM | Ki (recombinant hCES1b; [7]): 0.17 µM | Ki (recombinant hCES1b; [8]): 0.096 µM

B1: recombinant hCES1b (Homo sapiens) (protein)
chain: T1 sequence (P23141 18-567)
Km [5]: 6.04 µM | Vmax [5]: 0.0283 µmol/min/mg

Source: patent publication US20220401404A1, “Co-Administration Therapy to Prevent Neurodegeneration and Enhance Neuroprotection” (THE REGENTS OF THE UNIVERSITY OF CALIFORNIA, priority 2019, published 2022)
